In patent US20230203064A1, “TRICYCLIC COMPOUNDS AS INHIBITORS OF NLRP3” (JANSSEN PHARMACEUTICA NV, priority 2020, published 2023) one finds IC50, melting point and EC50 data, which are given here for twelve compounds.

One series concerns IL-1β. The experiment in a line: PBMC assay: IL-1β release after LPS stimulation (NLRP3 inflammasome activity). The class given is cell-based. The conditions noted are these: human PBMCs, 30 min pre-incubation, 100 ng/ml LPS for 6 hrs, supernatant, MSD technology. On the procedure:
(§1) Peripheral venous blood was collected from healthy individuals and human peripheral blood mononuclear cells (PBMCs) were isolated from blood by Ficoll-Histopaque (Sigma-Aldrich, A0561) density gradient centrifugation. After isolation, PBMCs were stored in liquid nitrogen for later use. Upon thawing, PBMC cell viability was determined in growth medium (RPMI media supplemented with 10% fetal bovine serum, 1% Pen-Strep and 1% L-glutamine). Compounds were spotted in a 1:3 serial dilution in DMSO and diluted to the final concentration in 30 μl medium in 96 well plates (Falcon, 353072). PBMCs were added at a density of 7.5×10^4 cells per well and incubated for 30 min in a 5% CO2 incubator at 37° C. LPS stimulation was performed by addition of 100 ng/ml LPS (final concentration, Invivogen, tirl-smips) for 6 hrs followed by collection of cellular supernatant and the analysis of IL-1β (μM) and TNF cytokines levels (μM) via MSD technology according to manufacturers' guidelines (MSD, K151A0H).

Another series deals with TNF. Description: PBMC assay: TNF cytokine level after LPS stimulation. It is filed as cell-based. The conditions noted are these: human PBMCs, 30 min pre-incubation, 100 ng/ml LPS for 6 hrs, supernatant, MSD technology. On the procedure: as §1
The IC50 values (for IL-1β) and EC50 values (TNF) were obtained on compounds of the invention/examples, and are depicted in the following table: […]

One may read the IC50 as the concentration that gives 50% inhibition. In general, melting point refers to the temperature, or range, at which the solid turns liquid. One may read the EC50 as the concentration needed to bring the measured effect to its halfway point. The low end stands for an effect from little substance, the high end for a need for much substance. Take `CCN(C)c1nn(CC(=O)Nc2ccncn2)c(=O)c2cc3scnc3n12` [Final Cpd 1, 2-[12-[ethyl(methyl)amino]-9-oxo-5-thia-1,3,10,11-tetrazatricyclo-[6.4.0.02,6]dodeca-2(6),3,7,11-tetraen-10-yl]-N-pyrimidin-4-yl-acetamide]: the melting point came out at 214.8 °C. The compound further came in with an IC50 in the series on IL-1β of 360 nM. This compound also displayed a half-maximal effective concentration (EC50) in the series on TNF of 8560 nM.

For `CN(C)c1nn(CC(=O)Nc2ccncn2)c(=O)c2cc3scnc3n12` [Final Cpd 2], the melting point was determined as 248.3 °C. In the series on IL-1β, this compound had an IC50 of less than 120 nM. Moreover, the EC50 in the series on TNF is greater than 10000 nM.

In the series on IL-1β, `COCCN(C)c1nn(CC(=O)Nc2ccncn2)c(=O)c2cc3sccc3n12` [Final Cpd 3] gave an IC50 of 660 nM. In the series with TNF, this compound returned an EC50 greater than 10000 nM.

Compound `CCCN(C)c1nn(CC(=O)Nc2ccncn2)c(=O)c2cc3sccc3n12` [Final Cpd 4] gave a concentration for half-maximal inhibition (IC50) in the series on IL-1β of 320 nM. The compound also displayed a 50% effective concentration (EC50) in the series on TNF greater than 10000 nM.

Regarding `CNc1nn(CC(=O)Nc2ccncn2)c(=O)c2cc3sccc3n12` [Final Cpd 5], the IC50 in the series with IL-1β was 210 nM. For the same compound, the EC50 in the series with TNF was greater than 10000 nM.

In the series on IL-1β, `CCN(C)c1nn(CC(=O)Nc2ccncn2)c(=O)c2cc3sccc3n12` [Final Cpd 6] had an IC50 of 250 nM. The compound also yielded a 50% effective concentration (EC50) in the series on TNF greater than 10000 nM.

Consider `CN(C)c1nn(CC(=O)Nc2ccncn2)c(=O)c2cc3sccc3n12` [Final Cpd 7], for which the concentration for half-maximal inhibition (IC50) in the series on IL-1β was less than 120 nM. This compound registered a concentration for a half-maximal effect (EC50) in the series on TNF greater than 10000 nM.

For `CCCN(C)c1nn(CC(=O)Nc2ccncn2)c(=O)c2cc3scnc3n12` [Final Cpd 8], the melting point is 196.7 °C. Besides, inhibition in the series with IL-1β was half-maximal at 280 nM (IC50). In the series on TNF, the EC50 was greater than 10000 nM.

`CN(C)c1nn(CC(=O)N[C@H]2C[C@@](C)(O)C2)c(=O)c2cc3scnc3n12` [Final Cpd 9]: the melting point amounted to 221.7 °C. The compound further gave a half-inhibitory concentration (IC50) in the series on IL-1β of less than 120 nM. This compound also displayed an EC50 with TNF greater than 10000 nM.

As to `CNc1nn(CC(=O)Nc2ccncn2)c(=O)c2cc3scnc3n12` [Final Cpd 10], the melting point is 263.5 °C. Besides, the IC50 with IL-1β amounted to 270 nM. Moreover, in the series on TNF, the EC50 is greater than 10000 nM.

Take `CN(C)c1nn(CC(=O)N[C@H]2C[C@@](C)(O)C2)c(=O)c2cc3sccc3n12` [Final Cpd 11, 2-(5-(dimethylamino)-8-oxothieno[2′,3′:4,5]pyrrolo[1,2-d][1,2,4]triazin-7(8H)-yl)-N-((1s,3s)-3-hydroxy-3-methylcyclobutyl)acetamide]: the EC50 with TNF is greater than 10000 nM.

Consider `CN(C)c1nn(CC(=O)Nc2ccc3nncn3n2)c(=O)c2cc3sc(Cl)cc3n12` [Final Cpd 12, N-([1,2,4]triazolo[4,3-b]pyridazin-6-yl)-2-(2-chloro-5-(dimethylamino)-8-oxothieno[2′,3′:4,5]pyrrolo[1,2-d][1,2,4]triazin-7(8H)-yl)acetamide], for which, in the series on IL-1β, the midpoint of inhibition, the IC50, lay at 20 nM. The EC50 with TNF came out at 6970 nM.
